Source: patent publication US20210255193A1, “LYSINE REACTIVE PROBES AND USES THEREOF” (The Scripps Research Institute, priority 2017, published 2021)

Columns and labels:
Format in all cases: binding
[1] = target: T1, interaction between SIN3A and TGIF1 (Homo sapiens, UniProt Q96ST3); experiment: Co-IP experiment, anti-Myc western blot; conditions: anti-Myc blotting
T1 construct: flag-SIN3A or the indicated Flag-SIN3A mutants (a.a. 1-400), or Flag-GFP, were co-expressed in HEK 293T cells with Myc-TGIF1 or Myc-TGIF2; expressed in transfected cells; host or cells: HEK 293T
Protocol: (§1) Co-IP experiment for the interaction between SIN3A and TGIF1 and TGIF2. 6 cm dishes of HEK 293T cells were transfected at 40% confluency with 600 ng of FLAG-GFP, FLAG-SIN3A WT, K155W, or K155R construct, and 600 ng of MYC-TGIF1 or MYC-TGIF2 as indicated. After 48 hours, cells were lysed and enriched as described above. Following elution in 40 μL urea, 15 μL of loading buffer was added to samples. 15 μL of both input (10%) and outputs were loaded onto an SDS-PAGE gel.
(§2) Western blotting. Proteins were resolved by SDS-PAGE (3 h, 300 V) and transferred to nitrocellulose membranes (90 min, 60 V), blocked with 5% milk in TBS-T and probed with the indicated antibodies in 5% milk in TBS-T. The primary antibodies and the dilutions used are as follows: anti-Flag (Sigma Aldrich, F1804, 1:3,000), anti-Myc (Cell Signalling, 2272S, 1:5,000), anti-actin (Cell Signaling, 3700, 1:3,000) and anti-GAPDH (Santa Cruz, 32233, 1:10,000). Blots were incubated with primary antibodies overnight at 4° C. with rocking and were then washed (3×5 min, TBS-T) and incubated with secondary antibodies (LICOR, IRDye 800CW or IRDye 680LT, 1:10,000) for 1 h at ambient temperature. Blots were further washed (3×5 min, TBST) and visualized on a LICOR Odyssey Scanner. Relative band intensities were quantified using ImageJ software.

[2] = target: T2, interaction between SIN3A and TGIF1 (Homo sapiens, UniProt Q96ST3, K155R); experiment: Co-IP experiment, anti-Myc western blot; conditions: K155R SIN3A
T2 construct: flag-SIN3A or the indicated Flag-SIN3A mutants (a.a. 1-400), or Flag-GFP, were co-expressed in HEK 293T cells with Myc-TGIF1 or Myc-TGIF2; expressed in transfected cells; host or cells: HEK 293T
Protocol: as §1, §2

[3] = target: T3, interaction between SIN3A and TGIF2 (Homo sapiens, UniProt Q96ST3); experiment: Co-IP experiment, anti-Myc western blot; conditions: anti-Myc blotting
T3 construct: flag-SIN3A or the indicated Flag-SIN3A mutants (a.a. 1-400), or Flag-GFP, were co-expressed in HEK 293T with Myc-TGIF2; expressed in transfected cells; host or cells: HEK 293T
Protocol: as §1, §2

[4] = tested on: soluble proteome of the human breast cancer cell line MDA-MB-231; experiment: isoTOP-ABPP, residues labeled by probe 1
Protocol: STP-alkyne labeling and click chemistry. For concentration-dependent reactivity measurements by isoTOP-ABPP, 0.5 ml proteome aliquots were treated at ambient temperature with 1 mM STP-alkyne 1 (5 μl of 100 mM stock in DMSO) and 0.1 mM STP alkyne 1 (5 μl of 10 mM stock in DMSO), respectively. For competitive isoTOP-ABPP, after in vitro fragment treatment (detailed above), the samples were labeled for 1 h at ambient temperature with 0.1 mM STP-alkyne 1 (5 μl of 10 mM stock in DMSO). Samples were conjugated by copper-mediated azide-alkyne cycloaddition (CuAAC) to either the light (1 mM STP-alkyne or fragment treated) or heavy (0.1 mM STP-alkyne or DMSO treated) TEV tags (10 μl of 5 mM stocks in DMSO, final concentration=100 μM) using tris(2-carboxyethyl)phosphine hydrochloride
Peptide and protein identification. The MS2 spectra were extracted from the raw file using RAW Xtractor. MS2 spectra were searched using the ProLuCID algorithm using a reverse concatenated, nonredundant variant of the Human UniProt database (release-2012_11). Cysteine residues were searched with a static modification for carboxyamidomethylation (+57.02146). For all competitive and reactivity profiling experiments, lysine residues were searched with up to one differential modification for either the light or heavy TEV tags (+464.2491 or +470.26331, respectively). Peptides were required to have at least one tryptic terminus and to contain the TEV modification. ProLuCID data was filtered through DTASelect (version 2.0) to achieve a peptide false-positive rate below 1%.
Differential labeling analysis of residues labeled by probe 1. For analysis of the residues labeled by probe 1, peptide and protein identification was conducted as detailed above with differential modification for either the light or heavy TEV tags (+464.2491 or +470.26331, respectively) allowed on lysine, arginine, aspartate, glutamate, histidine, serine, threonine, tyrosine, asparagine, glutamine and tryptophan. Cysteine was searched with a differential modification for either the light or heavy TEV tags (+413.24185 and +407.22764, respectively).
To assess the scope and selectivity with which 1 reacted with lysine residues in human cell proteomes, initial isoTOP-ABPP experiments were performed as follows. Two equal amounts of the soluble proteome of the human breast cancer cell line MDA-MB-231 (0.75 mg of protein per sample) were treated with 1 (100 μM, 1 h), and then conjugated by copper-catalyzed azide-alkyne cycloaddition (CuAAC) to isotopically differentiated TEV-cleavable, azide-biotin tags (heavy and light, respectively). The heavy and light-tagged samples were then combined, and 1-labeled proteins enriched by streptavidin and proteolytically digested sequentially with trypsin and TEV protease (to release 1-labeled tryptic peptides from the streptavidin support), furnishing isotopic (heavy/light) peptide pairs that were analyzed by multidimensional liquid chromatography-MS(LC/LC-MS/MS). Measurement of the MS1 chromatographic peak ratios for light/heavy peptide pairs provided an isoTOP-ABPP ratio or R value, which centered on about 1.0 for the more than 5000 probe 1-labeled peptides quantified in this initial study. […] Because lysine modification creates a missed trypsin cleavage site, the fractions of alternative amino-acid modification assignments were further assessed for their occurrence on peptides harboring a missed lysine cleavage site. […]

[5] = 1 100 μM, 1 h, pilot experiment

T2 sequence (Q96ST3 1-400 K155R): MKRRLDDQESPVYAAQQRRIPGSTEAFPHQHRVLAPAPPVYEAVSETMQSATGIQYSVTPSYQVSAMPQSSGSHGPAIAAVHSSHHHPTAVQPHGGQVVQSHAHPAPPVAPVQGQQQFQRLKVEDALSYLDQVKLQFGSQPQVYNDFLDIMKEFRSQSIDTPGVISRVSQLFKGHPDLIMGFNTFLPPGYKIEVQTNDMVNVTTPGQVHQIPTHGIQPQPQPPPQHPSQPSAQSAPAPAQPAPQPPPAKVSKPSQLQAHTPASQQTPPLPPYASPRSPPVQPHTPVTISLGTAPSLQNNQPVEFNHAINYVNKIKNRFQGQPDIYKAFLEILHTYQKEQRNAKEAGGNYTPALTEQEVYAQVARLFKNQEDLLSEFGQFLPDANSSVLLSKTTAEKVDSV
T1 sequence (Q96ST3 1-400): as the sequence (Q96ST3 1-400 K155R) above, with R155K counted along it
T3 sequence (Q96ST3 1-400): as the sequence (Q96ST3 1-400 K155R) above, with R155K counted along it

co-immunoprecipitation of TGIF2 with SIN3A [3]	SMILES	co-immunoprecipitation of TGIF1 with SIN3A [1]	effect on SIN3A-TGIF1 interaction, K155R mutant [2]	reactivity and selectivity for lysine residues in the human proteome ([4]; 1 100 μM)	probe 1-labeled peptides quantified ([4]; 1 100 μM, 1 h)	1-labeled peptides assigned as uniquely modified on lysine residues [4, 5] [%]	remaining 1-labeled peptides assigned with lysine modifications as well as alternative residue modifications [4, 5] [%]	probe 1 modifications assigned to serine, of the total 1-labeled peptides ([4]; after filtering missed lysine cleavage events)
partial blockade	O=C(Oc1c(F)c(F)c(F)c(F)c1F)c1cc(C(F)(F)F)cc(C(F)(F)F)c1 [fragment 21, Pentafluorophenyl 3,5-bis(trifluoromethyl)benzoate]	blocked the co-immunoprecipitation of TGIF1	conferred resistance to the effects of 21					
	C#CCCC(=O)Oc1c(F)c(F)c(S(=O)(=O)[O-])c(F)c1F.[Na+] [probe 1, reference compound]			broad reactivity and good selectivity for lysine residues	more than 5000	> 52	54	about 8%
